Read-outs that look alike come from different tables or passages of the source.
What was measured:
firefly-Luciferase = target: T1, firefly-Luciferase (Photinus pyralis, UniProt P08659); test: Luciferase (biochemical) qHTS assay, tox21-luc-biochem-p1, cell-free; settings: for AC50: no unit printed in the picture (text uses µM)
T1 construct: purchased Sigma-Aldrich (St. Louis, MO)
Excerpt: (§1) Three assay platforms were applied to analyze luciferase and fluorescence interference patterns using the Tox21 chemical screening library. […] The Tox21 chemical library (8,305 unique substances) was screened in triplicate concentration response in all assays, with concurrent cytotoxicity measurements where applicable.
The substrate D-Luciferin and the enzyme firefly-Luciferase were purchased from Sigma-Aldrich (St. Louis, MO). The positive control compound (PTC-124) was purchased from Santa Cruz Biotechnology, Inc. (Dallas, TX).
Three µL of the substrate (mixture containing 50 mM Tris-acetate pH 7.6, 13.3 mM magnesium acetate, 0.01 mM D-luciferin, 0.01 mM ATP, 0.01% Tween, 0.05% BSA and distilled H2O) was dispensed into medium-binding white/solid 1,536-well plates (Greiner Bio-One North America Inc., Monroe, NC) using a Flying Reagent Dispenser, FRD (Aurora Discovery, Carlsbad, CA). Then 23 nL of the test compounds (into 5–48 columns), PTC-124 and/or DMSO (into 1–4 columns) were transferred to the assay plates using a Pintool station (Wako, San Diego, CA). The positive control plate format is, column-1: sixteen-concentration two-fold titration of PTC-124 from 0.035 nM to 1.15 µM with duplicate points; columns-2 & 3 for the top half portions: 0.58 and 1.15 µM PTC-124 respectively and DMSO in the rest. Compound addition was followed by the addition of 1 μl of 10 nM enzyme (mixture containing 50 mM Tris-acetate, 0.04 µM firefly-Luciferase and distilled H2O) by using an FRD to all the wells of assay plate except in the 4th column which received the buffer instead. After 5 min incubation at room temperate, luminescence intensity was measured by a Viewlux plate reader (Perkin Elmer, Waltham, MA). Data were expressed as relative luminescence units. Each test compound was measured at 15 concentrations ranging from 1.5 nM to 115 µM and in triplicate.
For primary data analysis, raw plate reads for each titration point were first normalized relative to DMSO-only wells that received firefly-Luciferase (basal, 0%) and PTC-124 control wells that received firefly-Luciferase (0.58 µM, −100%) and then corrected by applying a pattern correction algorithm using compound-free control plates (DMSO plates). Concentration-response titration points for each compound replicate were fitted to the Hill equation and concentrations of half-maximal inhibition activity (IC50) and maximal response (efficacy) values were calculated; the mean of the IC50s was used as the representative value. Concentration response curves were designated as class 1–4 based on the quality of the fit, the number of points above background, and the response efficacy, as previously described (summarized in Supporting Information Table S1)[18],[20].
(§2) Finally, for autofluorescence assays, to avoid indications of generalized cell stress without specific biomolecular interactions, only AC50 below the burst cutoff defined in[23] were considered. Indeed, activity above this limit may result from triggering cell stress pathways, chemical reactivity, physico-chemical disruption of proteins or membranes, or broad low-affinity non-covalent interactions and not from a specific technology interference reaction. This filter was applied to distinguish chemical-structure driven autofluorescence from the increase in signal that has been observed due to cell stress. The distribution of the curve classes for active chemicals is presented in Supporting Information Fig. S1.

HepG2 and HEK-293 [1] = test: Autofluorescence assays, green channel, the four conditions taken together; settings: for autofluorescence activity: example structures of SOM clusters 209, 173, 117
Experimental: (§3) Three assay platforms were applied to analyze luciferase and fluorescence interference patterns using the Tox21 chemical screening library.
(§4) HepG2 and HEK-293 cells were purchased from American Type Culture Collection (ATCC, Manassas, VA). HepG2 cells were cultured in Eagle’s Minimum Essential Medium (EMEM, ATCC) and HEK-293 cells in Dulbecco’s Modified Eagle’s Medium (DMEM, Life Technologies Corporation, Carlsbad, CA), and both supplemented with 10% Hyclone’s Fetal Bovine Serum (ThermoFisher Scientific, Waltham, MA), and 100 U/ml penicillin-100 µg/ml streptomycin (Life Technologies Corporation). Cells were cultured and maintained at 37 °C under a humidified atmosphere and 5% CO2.
(§5) HepG2 and HEK-293 cells were dispensed at 2,000/well in 5 µL of the culture medium into 1,536-well black/clear plates using a Multidrop™ Combi Reagent dispenser (ThermoFisher Scientific). In parallel, 5 µL/well of culture medium only were dispensed into 1,536-well black/clear plates. […] After respective incubation times, 23 nL of the compounds dissolved in DMSO, positive controls (fluorescein-green, triamterene-blue, and rose bengal-red) were transferred to the assay plates using Pintool station (Wako, San Diego, CA). […] Data were expressed as relative fluorescence units.
(§6) Analysis of compound concentration-response data was performed as previously described. Briefly, raw plate reads for each titration point were first normalized and then corrected by applying a pattern correction algorithm using compound-free control plates (DMSO plates)[22]. […] When normalizing to the positive control, the positive control response was set to 100% and negative control to 0% as follows: Activity(%)=([Vc−VDMSO]/[Vpos−VDMSO])×100, where Vc denotes the compound well values, Vpos denotes the median value of the positive control wells, and VDMSO denotes the median values of the DMSO-only wells. […] The following formula was used to normalize data to the negative control: Activity(%)=([Vc−VDMSO]/[VDMSO])×100 Concentration-response titration points for each compound were fitted to the Hill equation and concentrations of half-maximal activity (AC50) and maximal response (efficacy) values were calculated. Concentration response curves were designated as class 1–4 based on the quality of the fit, the number of points above background, and the response efficacy, as previously described (summarized in Supporting Information Table S1)[18],[20].
Finally, for autofluorescence assays, to avoid indications of generalized cell stress without specific biomolecular interactions, only AC50 below the burst cutoff defined in[23] were considered. […]

HepG2 and HEK-293 [2] = test: Autofluorescence assays, all channels and culture conditions taken together; settings: for autofluorescence activity specific to one cell culture: among chemicals active within wavelengths, Fig. 8
Experimental: as §1, §4
(§7) HepG2 and HEK-293 cells were dispensed at 2,000/well in 5 µL of the culture medium into 1,536-well black/clear plates using a Multidrop™ Combi Reagent dispenser (ThermoFisher Scientific). In parallel, 5 µL/well of culture medium only were dispensed into 1,536-well black/clear plates. […] After respective incubation times, 23 nL of the compounds dissolved in DMSO, positive controls (fluorescein-green, triamterene-blue, and rose bengal-red) were transferred to the assay plates using Pintool station (Wako, San Diego, CA). […] The fluorescence intensity was measured using an Envision plate reader (Perkin Elmer, Waltham, MA) by using excitation/emission filters at 485/535 nm, 405/460 nm, and 540/590 nm for green, blue and red channels respectively. Data were expressed as relative fluorescence units. Each test compound was measured at 5 concentrations ranging from to 29 nM to 92 µM.
as §6
Finally, for autofluorescence assays, to avoid indications of generalized cell stress without specific biomolecular interactions, only AC50 below the burst cutoff defined in[23] were considered. Indeed, activity above this limit may result from triggering cell stress pathways, chemical reactivity, physico-chemical disruption of proteins or membranes, or broad low-affinity non-covalent interactions and not from a specific technology interference reaction. […]

HepG2 and HEK-293 [3] = test: Autofluorescence assays, red channel, the four conditions taken together
Experimental: as §1, §4, §7
as §6, with “Concentration response curves were designated as class 1–4 based on the quality of the fit, the number of points above background, and the response efficacy, as previously described (summarized in Supporting Information Table S1)[18],[20].” left out

HepG2 and HEK-293 [4] = test: Autofluorescence assays, blue channel, the four conditions taken together (HepG2/HEK-293, cell-based/cell-free); settings: for autofluorescence activity specific to culture condition: Fig. 8A
Experimental: as §3, §4, §5, §6
as §2, with “stress.” for “stress. The distribution of the curve classes for active chemicals is presented in Supporting Information Fig. S1.”

HEK-293 cells = test: Autofluorescence qHTS, HEK-293 cell based, green channel; settings: Homo sapiens; Hek293 cell based, green spectrum; unit inferred
Experimental: as §1
(§8) HepG2 and HEK-293 cells were purchased from American Type Culture Collection (ATCC, Manassas, VA). […]
(§9) HepG2 and HEK-293 cells were dispensed at 2,000/well in 5 µL of the culture medium into 1,536-well black/clear plates using a Multidrop™ Combi Reagent dispenser (ThermoFisher Scientific). […] The fluorescence intensity was measured using an Envision plate reader (Perkin Elmer, Waltham, MA) by using excitation/emission filters at 485/535 nm, 405/460 nm, and 540/590 nm for green, blue and red channels respectively. Data were expressed as relative fluorescence units. Each test compound was measured at 5 concentrations ranging from to 29 nM to 92 µM.
(§10) Analysis of compound concentration-response data was performed as previously described. Briefly, raw plate reads for each titration point were first normalized and then corrected by applying a pattern correction algorithm using compound-free control plates (DMSO plates)[22]. […]

HepG2 cells = test: Autofluorescence qHTS, HepG2 cell based, green channel; settings: Homo sapiens, green spectrum, unit inferred
Experimental: as §1, §8, §9, §10

[5] = all four assay conditions, read-out: AC50s

T1 sequence (P08659 whole entry): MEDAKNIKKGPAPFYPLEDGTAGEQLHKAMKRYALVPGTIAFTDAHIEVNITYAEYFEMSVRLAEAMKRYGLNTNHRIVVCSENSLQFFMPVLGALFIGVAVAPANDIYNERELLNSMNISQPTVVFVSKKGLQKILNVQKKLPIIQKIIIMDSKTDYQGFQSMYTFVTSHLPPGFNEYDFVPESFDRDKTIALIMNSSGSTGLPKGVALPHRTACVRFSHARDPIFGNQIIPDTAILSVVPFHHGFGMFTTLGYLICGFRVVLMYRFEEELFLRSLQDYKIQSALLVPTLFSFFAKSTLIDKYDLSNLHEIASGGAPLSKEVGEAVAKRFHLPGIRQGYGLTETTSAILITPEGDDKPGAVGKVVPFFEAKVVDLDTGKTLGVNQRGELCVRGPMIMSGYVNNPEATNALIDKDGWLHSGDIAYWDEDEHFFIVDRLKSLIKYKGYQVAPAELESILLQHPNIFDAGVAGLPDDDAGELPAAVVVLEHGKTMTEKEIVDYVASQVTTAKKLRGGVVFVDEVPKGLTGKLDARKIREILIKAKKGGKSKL

**Q.** `[O-][n+]1ccccc1S` [13463-41-7] was tested. Which IC50 (firefly-Luciferase; after filtering, no unit printed in the sheet, read-out: Luc_IC50) did it give?
**A.** Its IC50 is 481 nM.

**Q.** Which results are given for `O=C1CCCO1` [Chemical 32]?
**A.** autofluorescence activity (HepG2 and HEK-293 [1]): Active; autofluorescence activity (HepG2 and HEK-293 [2]; green and red channel, SOM cluster 209): autofluorescent in both the green and red channel

**Q.** With `CC(CO)NC(=O)C1C=C2c3cccc4[nH]cc(c34)CC2N(C)C1` (centres unmarked) [Chemical 36] as the compound, how does the autofluorescence activity (HepG2 and HEK-293 [1]) read?
**A.** Its autofluorescence activity is “actives”.

**Q.** `O=C(O)CCCc1ccc(N(CCCl)CCCl)cc1` [Chemical 44] was tested. Which autofluorescence activity (HepG2 and HEK-293 [3]; example structures of SOM clusters 194 (219 in Fig. 6) and 143) did it give?
**A.** Its autofluorescence activity is “actives”.

**Q.** Which “autofluorescence activity specific to one cell culture” value (HepG2 and HEK-293 [2]) does the source give for `CCCNC(=O)NS(=O)(=O)c1ccc(Cl)cc1` [Chemical 49] here?
**A.** The value was “active only on HEK-293”.

**Q.** With `OC[C@H]1O[C@@H]2O[C@H]3[C@H](O)[C@@H](O)[C@@H](O[C@H]4[C@H](O)[C@@H](O)[C@@H](O[C@H]5[C@H](O)[C@@H](O)[C@@H](O[C@H]6[C@H](O)[C@@H](O)[C@@H](O[C@H]7[C@H](O)[C@@H](O)[C@@H](O[C@H]8[C@H](O)[C@@H](O)[C@@H](O[C@H]1[C@H](O)[C@H]2O)O[C@@H]8CO)O[C@@H]7CO)O[C@@H]6CO)O[C@@H]5CO)O[C@@H]4CO)O[C@@H]3CO` [Chemical 58] as the compound, how does the “autofluorescence activity specific to culture condition” value (HepG2 and HEK-293 [4]) read?
**A.** The value was “active only in the HEK-293 cell-free condition”.

**Q.** With `O=C1CCCCC1` [Chemical 59] as the compound, how does the “autofluorescence activity specific to culture condition” value (HepG2 and HEK-293 [4]) read?
**A.** Its value is “active only in the HEK-293 cell-free condition”.

**Q.** How did the “autofluorescence activity specific to one cell culture” value (HepG2 and HEK-293 [2]) turn out when `CN(C)N=Nc1nc[nH]c1C(N)=O` [Chemical 63] was run?
**A.** Its value is “active specifically on the HepG2 culture”.

**Q.** Which “autofluorescence activity specific to one cell culture” value (HepG2 and HEK-293 [2]) does the source give for `Nc1ccc(N)cc1` [Chemical 77] here?
**A.** Its value is “active only on HEK-293”.

**Q.** With `Nc1ccc(N)c2ccccc12` [Chemical 79] as the compound, how does the “autofluorescence activity specific to one cell culture” value (HepG2 and HEK-293 [2]) read?
**A.** Its value is “active specifically on the HepG2 culture”.

**Q.** How did the response curve class (firefly-Luciferase) turn out when `O=C(O)c1cccc(-c2noc(-c3ccccc3F)n2)c1` [PTC-124, Ataluren] was run?
**A.** Its response curve class is −1.1.

**Q.** And the IC50 (firefly-Luciferase; estimated, based on triplicate measurements, read-out: IC50)?
**A.** The IC50 was less than 20 nM.

**Q.** What about the AC50 (firefly-Luciferase; set1) of the same compound?
**A.** The AC50 was 0.00871 µM.

**Q.** What about the AC50 (firefly-Luciferase; set2) of the same compound?
**A.** Its AC50 is 0.0195 µM.

**Q.** What about the AC50 (firefly-Luciferase; set3) of the same compound?
**A.** The AC50 was 0.0195 µM.

**Q.** Which AC50 (HEK-293 cells) does the source give for `O=C1OC2(c3ccc(O)cc3Oc3cc(O)ccc32)c2ccccc21` [fluorescein] here?
**A.** Its AC50 is 2820 nM.

**Q.** And the curve class (HepG2 and HEK-293 [1]; all four assay conditions)?
**A.** Its curve class is 1.1.

**Q.** And the EC50 (HepG2 and HEK-293 [1]; [5])?
**A.** The EC50 was less than 4000 nM.

**Q.** And the AC50 (HepG2 cells)?
**A.** The AC50 was 3160 nM.

**Q.** What does the source list for rose bengal?
**A.** response curve class (HepG2 and HEK-293 [3]; all four assay conditions): 2.1; EC50 (HepG2 and HEK-293 [3]; [5]): < 12000 nM; efficacy (HepG2 and HEK-293 [3]; incomplete response): > 80%

**Q.** With triamterene [Tiramterene] as the compound, how does the response curve class (HepG2 and HEK-293 [4]; all four assay conditions) read?
**A.** The response curve class was 2.1.

**Q.** And the EC50 (HepG2 and HEK-293 [4]; [5])?
**A.** The EC50 was less than 40000 nM.

**Q.** And the efficacy (HepG2 and HEK-293 [4]; incomplete response)?
**A.** Its efficacy is greater than 80%.

Reference: publication PMC7055224, “High-Throughput Screening to Predict Chemical-Assay Interference” (Scientific Reports, 2020)
